Laboratory results from ChEMBL document CHEMBL1909046, “DrugMatrix in vitro pharmacology data”.

Assays:
Cytochrome P450 2E1 = Cytochrome P450 2E1 (Homo sapiens, UniProt P05181); conditions: bti-tn-5b1-4; note: in other assays of this panel Not Active means under 50% inhibition at 10 µM
Progesterone receptor = target: T1, Progesterone receptor (Bos taurus, UniProt Q690N0); assay: DRUGMATRIX: Progesterone radioligand binding (ligand: [3H] R-5020); type: tissue-based, Uterus; conditions: Not Active = under 50% inhibition at 10 µM
T1 sequence (Q690N0 whole entry): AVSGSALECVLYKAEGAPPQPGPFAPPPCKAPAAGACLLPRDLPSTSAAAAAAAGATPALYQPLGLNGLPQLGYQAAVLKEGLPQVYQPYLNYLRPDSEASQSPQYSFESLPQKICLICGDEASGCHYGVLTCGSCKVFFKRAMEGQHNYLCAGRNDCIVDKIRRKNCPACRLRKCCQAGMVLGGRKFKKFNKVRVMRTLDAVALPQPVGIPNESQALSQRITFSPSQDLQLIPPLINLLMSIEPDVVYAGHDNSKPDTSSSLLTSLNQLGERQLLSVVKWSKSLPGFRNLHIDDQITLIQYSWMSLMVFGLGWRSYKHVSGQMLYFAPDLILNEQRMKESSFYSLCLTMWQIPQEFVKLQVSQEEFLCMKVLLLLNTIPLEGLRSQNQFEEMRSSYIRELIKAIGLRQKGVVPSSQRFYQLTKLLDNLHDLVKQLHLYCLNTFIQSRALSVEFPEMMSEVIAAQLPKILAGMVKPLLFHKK

[1] = target: T2, Alpha-1B adrenergic receptor (Rattus norvegicus, UniProt P15823); assay: DRUGMATRIX: Alpha-1B adrenergic receptor radioligand binding (ligand: prazosin); type: cell membranes, Wistar, Liver, Membrane; conditions: Not Active = under 50% inhibition at 10 µM
T2 sequence (P15823 whole entry): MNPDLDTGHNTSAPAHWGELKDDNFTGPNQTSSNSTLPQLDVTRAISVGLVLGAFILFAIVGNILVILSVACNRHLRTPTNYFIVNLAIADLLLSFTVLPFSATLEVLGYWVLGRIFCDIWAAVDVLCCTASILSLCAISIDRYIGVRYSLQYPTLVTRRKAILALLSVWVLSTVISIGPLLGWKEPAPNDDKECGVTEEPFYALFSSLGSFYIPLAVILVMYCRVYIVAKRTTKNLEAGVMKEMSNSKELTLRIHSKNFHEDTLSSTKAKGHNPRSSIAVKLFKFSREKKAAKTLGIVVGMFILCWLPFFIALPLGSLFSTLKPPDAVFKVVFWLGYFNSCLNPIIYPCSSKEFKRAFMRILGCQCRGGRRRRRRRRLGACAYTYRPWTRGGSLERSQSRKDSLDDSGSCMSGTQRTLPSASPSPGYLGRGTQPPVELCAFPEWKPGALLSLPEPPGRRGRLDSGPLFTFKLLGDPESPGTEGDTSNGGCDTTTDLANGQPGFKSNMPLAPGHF

Cytochrome P450 3A4 = Cytochrome P450 3A4 (Homo sapiens, UniProt P08684); conditions: bti-tn-5b1-4; note: in other assays of this panel Not Active means under 50% inhibition at 10 µM
Chain of Cytochrome P450 3A4 (P08684 whole entry): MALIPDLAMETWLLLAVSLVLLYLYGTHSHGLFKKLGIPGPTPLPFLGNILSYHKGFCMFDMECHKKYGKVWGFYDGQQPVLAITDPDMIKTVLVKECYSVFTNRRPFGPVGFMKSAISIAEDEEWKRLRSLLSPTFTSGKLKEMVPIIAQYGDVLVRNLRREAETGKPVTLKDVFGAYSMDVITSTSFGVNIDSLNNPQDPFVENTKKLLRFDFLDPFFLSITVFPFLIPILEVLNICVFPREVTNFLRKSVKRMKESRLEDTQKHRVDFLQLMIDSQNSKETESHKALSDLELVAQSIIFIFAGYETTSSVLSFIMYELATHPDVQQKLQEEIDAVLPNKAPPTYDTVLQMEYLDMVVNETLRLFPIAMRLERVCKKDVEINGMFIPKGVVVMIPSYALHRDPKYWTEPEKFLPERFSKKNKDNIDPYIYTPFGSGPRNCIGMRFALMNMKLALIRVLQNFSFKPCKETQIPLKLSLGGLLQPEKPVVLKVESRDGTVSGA

[2] = target: T3, Alpha-2A adrenergic receptor (Homo sapiens, UniProt P08913); type: cell membranes, Sf9, Membrane; conditions: for Ki: read-out: Ki; for all read-outs here: in other assays of this panel Not Active means under 50% inhibition at 10 µM
T3 sequence (P08913 whole entry): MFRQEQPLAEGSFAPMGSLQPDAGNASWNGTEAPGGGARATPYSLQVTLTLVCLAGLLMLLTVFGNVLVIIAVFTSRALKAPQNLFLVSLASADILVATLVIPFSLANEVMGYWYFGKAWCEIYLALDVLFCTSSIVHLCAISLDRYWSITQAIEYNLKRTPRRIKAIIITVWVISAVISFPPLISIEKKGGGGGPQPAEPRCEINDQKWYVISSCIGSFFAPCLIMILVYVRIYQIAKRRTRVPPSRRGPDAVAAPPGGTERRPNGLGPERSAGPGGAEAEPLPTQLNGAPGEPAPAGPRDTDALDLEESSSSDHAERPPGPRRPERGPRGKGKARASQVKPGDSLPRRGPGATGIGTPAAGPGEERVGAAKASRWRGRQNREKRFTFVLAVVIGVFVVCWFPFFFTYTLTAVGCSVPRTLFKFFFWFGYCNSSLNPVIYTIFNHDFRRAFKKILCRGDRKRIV

D(1A) dopamine receptor = D(1A) dopamine receptor (Homo sapiens, UniProt P21728); assay: DRUGMATRIX: Dopamine D1 radioligand binding (ligand: [3H] SCH-23390); type: cell membranes, CHO, Membrane; conditions: cho; Not Active = under 50% inhibition at 10 µM
Chain of D(1A) dopamine receptor (P21728 whole entry): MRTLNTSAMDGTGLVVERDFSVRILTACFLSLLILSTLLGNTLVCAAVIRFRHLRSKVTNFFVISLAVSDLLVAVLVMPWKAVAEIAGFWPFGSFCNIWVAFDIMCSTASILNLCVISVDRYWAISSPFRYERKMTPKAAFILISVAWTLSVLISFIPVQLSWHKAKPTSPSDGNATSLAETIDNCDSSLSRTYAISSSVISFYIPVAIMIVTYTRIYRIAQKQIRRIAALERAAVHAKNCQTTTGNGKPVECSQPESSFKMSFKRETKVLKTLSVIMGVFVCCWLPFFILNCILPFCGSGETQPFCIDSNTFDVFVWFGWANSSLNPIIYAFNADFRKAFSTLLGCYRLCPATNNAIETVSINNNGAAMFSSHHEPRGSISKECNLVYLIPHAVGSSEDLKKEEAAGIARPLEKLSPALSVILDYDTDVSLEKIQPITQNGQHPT

Cytochrome P450 1A2 = target: T4, Cytochrome P450 1A2 (Homo sapiens, UniProt P05177); conditions: bti-tn-5b1-4; note: in other assays of this panel Not Active means under 50% inhibition at 10 µM
T4 sequence (P05177 whole entry): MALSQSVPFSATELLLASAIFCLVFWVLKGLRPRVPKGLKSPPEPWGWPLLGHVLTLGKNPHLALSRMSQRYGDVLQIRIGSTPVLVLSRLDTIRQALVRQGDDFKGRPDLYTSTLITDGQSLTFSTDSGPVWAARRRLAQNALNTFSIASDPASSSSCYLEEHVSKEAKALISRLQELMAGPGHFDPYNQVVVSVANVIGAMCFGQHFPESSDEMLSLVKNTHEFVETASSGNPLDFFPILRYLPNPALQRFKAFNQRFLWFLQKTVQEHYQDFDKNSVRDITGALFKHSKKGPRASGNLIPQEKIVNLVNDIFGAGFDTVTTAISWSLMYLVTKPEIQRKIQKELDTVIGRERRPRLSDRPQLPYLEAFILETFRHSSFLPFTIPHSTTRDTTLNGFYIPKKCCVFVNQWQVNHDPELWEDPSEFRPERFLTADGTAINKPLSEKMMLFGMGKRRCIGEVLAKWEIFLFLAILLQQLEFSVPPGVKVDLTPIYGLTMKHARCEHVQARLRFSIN

Chain of Cytochrome P450 2E1 (P05181 whole entry): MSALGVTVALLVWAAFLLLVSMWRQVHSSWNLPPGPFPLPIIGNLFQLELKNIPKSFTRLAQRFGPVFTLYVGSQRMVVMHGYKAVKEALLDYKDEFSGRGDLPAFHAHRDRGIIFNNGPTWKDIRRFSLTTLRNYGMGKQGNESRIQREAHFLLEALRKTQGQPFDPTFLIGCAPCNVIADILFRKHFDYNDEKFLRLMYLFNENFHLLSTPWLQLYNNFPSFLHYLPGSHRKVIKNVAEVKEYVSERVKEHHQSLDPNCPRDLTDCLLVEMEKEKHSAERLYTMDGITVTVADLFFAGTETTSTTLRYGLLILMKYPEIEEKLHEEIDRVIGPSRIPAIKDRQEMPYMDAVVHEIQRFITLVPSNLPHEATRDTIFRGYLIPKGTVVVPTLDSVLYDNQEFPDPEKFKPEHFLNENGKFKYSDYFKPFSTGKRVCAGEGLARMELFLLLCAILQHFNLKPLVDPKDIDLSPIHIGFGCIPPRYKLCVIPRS

SMILES | IC50 (Cytochrome P450 2E1) | Ki (Cytochrome P450 2E1) | IC50 (Progesterone receptor) | IC50 [1] | IC50 (Cytochrome P450 3A4) | Ki (Cytochrome P450 3A4) | IC50 ([2]; sf9) | IC50 (D(1A) dopamine receptor) | IC50 (Cytochrome P450 1A2) | Ki (Cytochrome P450 1A2) | IC50 ([2]; read-out: IC50) [µM] | Ki [2] [µM]
Cc1ccnc(NS(=O)(=O)c2ccc(N)cc2)n1 [SULFAMERAZINE] | Not Active | Not Active | Not Active | Not Active | Not Active | Not Active | Not Active | Not Active | Not Active | Not Active | – | –
OC[C@@H](O)[C@@H](O)[C@H](O)[C@H](O)CO [MANNITOL] | Not Active | Not Active | Not Active | Not Active | Not Active | Not Active | Not Active | Not Active | Not Active | Not Active | – | –
CC1=C(/C=C/C(C)=C/C=C/C(C)=C/C(=O)O)C(C)(C)CCC1 [TRETINOIN] | Not Active | Not Active | Not Active | Not Active | Not Active | Not Active | Not Active | Not Active | Not Active | Not Active | – | –
CCN(CC)N=O [N-NITROSODIETHYLAMINE] | Not Active | Not Active | Not Active | Not Active | Not Active | Not Active | Not Active | Not Active | Not Active | Not Active | – | –
CCN1CCCC1CNC(=O)c1cc(S(N)(=O)=O)ccc1OC (configuration not stated) [SULPIRIDE] | Not Active | Not Active | Not Active | Not Active | Not Active | Not Active | – | Not Active | Not Active | Not Active | 2.02 | 0.757
O=C1CC[C@@]2(O)[C@H]3Cc4ccc(O)c5c4[C@@]2(CCN3CC2CC2)[C@H]1O5 [NALTREXONE] | Not Active | Not Active | Not Active | Not Active | Not Active | Not Active | Not Active | Not Active | Not Active | Not Active | – | –
C[N+]1(C)[C@@H]2C[C@@H](OC(=O)[C@H](CO)c3ccccc3)C[C@H]1[C@@H]1O[C@@H]12.[Br-] [METHSCOPOLAMINE BROMIDE] | Not Active | Not Active | Not Active | Not Active | Not Active | Not Active | Not Active | Not Active | Not Active | Not Active | – | –
CCN(CC)CCNC(=O)c1cc(Cl)c(N)cc1OC [METOCLOPRAMIDE] | Not Active | Not Active | Not Active | Not Active | Not Active | Not Active | – | Not Active | Not Active | Not Active | 2.72 | 1.02
CN1C(=O)OC(C)(C)C1=O [TRIMETHADIONE] | Not Active | Not Active | Not Active | Not Active | Not Active | Not Active | Not Active | Not Active | Not Active | Not Active | – | –
Cc1cn([C@H]2C=C[C@@H](CO)O2)c(=O)[nH]c1=O [STAVUDINE] | Not Active | Not Active | Not Active | Not Active | Not Active | Not Active | Not Active | Not Active | Not Active | Not Active | – | –
CC(C)(C)NC[C@H](O)COc1cccc2c1CCCC2=O [LEVOBUNOLOL] | Not Active | Not Active | Not Active | Not Active | Not Active | Not Active | Not Active | Not Active | Not Active | Not Active | – | –
Cc1ccc(Cl)c(Nc2ccccc2C(=O)O)c1Cl [MECLOFENAMIC ACID] | Not Active | Not Active | Not Active | Not Active | Not Active | Not Active | Not Active | Not Active | Not Active | Not Active | – | –
